Paper PMC4859410 (Pharmacogenetics and genomics, 2010)

What was measured:
Format in all cases: in vitro ADME
[1] = molecular target: T1, OATP1A2 (Homo sapiens, UniProt P46721); assay: Drug uptake in X. laevis oocytes injected with SLCO1A2; details: for Drug uptake, OATP1A2: OATP1A2 cRNA injected oocytes; for Drug uptake, OATP1A2 / Drug uptake, Water: 1 µM (darunavir 3 µM), 18°C, 1hr, mean ± SD; for Drug uptake, Water: water injected control oocytes (Table 1); for Accumulation in SLCO1A2 cRNA injected oocytes compared to water injected control oocytes (in words): in the presence and in the absence of 2% HSA; for Ratio (fold increase in OATP1A2 cRNA injected oocytes compared to water injected oocytes): * = P < 0.05
T1 sequence (P46721 1-670): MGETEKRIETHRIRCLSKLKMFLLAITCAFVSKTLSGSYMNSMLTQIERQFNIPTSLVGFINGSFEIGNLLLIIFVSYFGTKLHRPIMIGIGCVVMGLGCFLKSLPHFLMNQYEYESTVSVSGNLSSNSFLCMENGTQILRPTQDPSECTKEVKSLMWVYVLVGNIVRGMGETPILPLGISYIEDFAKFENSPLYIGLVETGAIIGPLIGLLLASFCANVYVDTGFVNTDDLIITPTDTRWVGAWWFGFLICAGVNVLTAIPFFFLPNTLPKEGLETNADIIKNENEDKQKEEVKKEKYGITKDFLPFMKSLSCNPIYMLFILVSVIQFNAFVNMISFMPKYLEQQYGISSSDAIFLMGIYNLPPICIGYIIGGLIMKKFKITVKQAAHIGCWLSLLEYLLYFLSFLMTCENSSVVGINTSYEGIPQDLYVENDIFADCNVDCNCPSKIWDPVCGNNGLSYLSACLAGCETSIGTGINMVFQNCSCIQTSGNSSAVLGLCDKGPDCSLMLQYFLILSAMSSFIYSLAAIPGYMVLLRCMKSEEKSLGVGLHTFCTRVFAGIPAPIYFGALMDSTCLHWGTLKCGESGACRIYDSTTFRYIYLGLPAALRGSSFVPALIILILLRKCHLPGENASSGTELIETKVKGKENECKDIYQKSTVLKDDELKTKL

[2] = molecular target: T2, OATP1B1 (Homo sapiens, UniProt Q9Y6L6); assay: Drug uptake in X. laevis oocytes injected with SLCO1B1; details: for Drug uptake, OATP1B1: OATP1B1 cRNA injected oocytes; for Drug uptake, OATP1B1 / Drug uptake, Water: 1 µM (darunavir 3 µM), 18°C, 1hr, mean ± SD; for Drug uptake, Water: water injected control oocytes (Table 2); for Accumulation in SLCO1B1 cRNA injected oocytes compared to water injected control oocytes (in words): in the presence and in the absence of 2% HSA; for Ratio (fold increase in OATP1B1 cRNA injected oocytes compared to water injected oocytes): * = P < 0.05
T2 sequence (Q9Y6L6 1-691): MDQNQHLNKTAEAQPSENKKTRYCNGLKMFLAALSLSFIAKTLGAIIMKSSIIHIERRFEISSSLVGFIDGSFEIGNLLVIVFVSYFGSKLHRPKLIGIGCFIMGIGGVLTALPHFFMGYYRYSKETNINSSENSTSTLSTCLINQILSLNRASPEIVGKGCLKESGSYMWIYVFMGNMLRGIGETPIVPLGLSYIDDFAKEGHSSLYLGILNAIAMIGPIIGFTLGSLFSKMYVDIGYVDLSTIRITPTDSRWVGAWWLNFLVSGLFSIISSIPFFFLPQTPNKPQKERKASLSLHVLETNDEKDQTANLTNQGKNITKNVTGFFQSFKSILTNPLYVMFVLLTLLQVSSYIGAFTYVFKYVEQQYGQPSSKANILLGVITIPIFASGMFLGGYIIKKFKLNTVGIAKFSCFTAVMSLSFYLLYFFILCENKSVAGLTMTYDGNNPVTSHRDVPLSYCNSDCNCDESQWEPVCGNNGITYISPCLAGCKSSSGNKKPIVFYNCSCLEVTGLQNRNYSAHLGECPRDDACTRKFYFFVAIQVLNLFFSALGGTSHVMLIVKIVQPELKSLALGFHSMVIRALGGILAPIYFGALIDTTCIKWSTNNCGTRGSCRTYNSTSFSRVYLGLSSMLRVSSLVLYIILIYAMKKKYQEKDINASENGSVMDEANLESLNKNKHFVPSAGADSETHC

[3] = molecular target: T3, OATP1B3 (Homo sapiens, UniProt Q9NPD5); assay: Drug uptake in X. laevis oocytes injected with SLCO1B3; details: without human serum albumin; for Drug uptake, OATP1B3: OATP1B3 cRNA injected oocytes; for Drug uptake, OATP1B3 / Drug uptake, Water: 1 µM (darunavir 3 µM, performed once), 18°C, 1hr, mean ± SD; for Drug uptake, Water: water injected control oocytes (Table 3); for Ratio (fold increase in OATP1B3 cRNA injected oocytes compared to water injected oocytes): * = P < 0.05
T3 sequence (Q9NPD5 1-702): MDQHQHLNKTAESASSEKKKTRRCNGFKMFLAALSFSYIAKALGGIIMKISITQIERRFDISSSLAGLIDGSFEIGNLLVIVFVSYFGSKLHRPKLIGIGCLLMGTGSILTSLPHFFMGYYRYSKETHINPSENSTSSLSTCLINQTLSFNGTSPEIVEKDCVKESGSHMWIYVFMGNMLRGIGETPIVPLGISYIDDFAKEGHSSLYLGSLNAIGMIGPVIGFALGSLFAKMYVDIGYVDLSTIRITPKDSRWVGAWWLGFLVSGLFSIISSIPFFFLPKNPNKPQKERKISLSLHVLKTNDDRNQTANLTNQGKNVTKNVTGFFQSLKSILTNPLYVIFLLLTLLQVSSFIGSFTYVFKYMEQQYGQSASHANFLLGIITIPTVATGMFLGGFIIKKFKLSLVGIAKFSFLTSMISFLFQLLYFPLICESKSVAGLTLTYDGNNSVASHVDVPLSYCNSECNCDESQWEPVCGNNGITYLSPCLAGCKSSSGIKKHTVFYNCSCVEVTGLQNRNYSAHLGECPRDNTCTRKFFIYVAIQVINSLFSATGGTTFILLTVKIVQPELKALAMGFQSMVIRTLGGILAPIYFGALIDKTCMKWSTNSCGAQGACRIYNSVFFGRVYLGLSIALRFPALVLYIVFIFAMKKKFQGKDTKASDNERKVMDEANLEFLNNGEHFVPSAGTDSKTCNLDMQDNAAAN

CC(C)CN(C[C@@H](O)[C@H](Cc1ccccc1)NC(=O)O[C@H]1CO[C@H]2OCC[C@H]21)S(=O)(=O)c1ccc(N)cc1 [Darunavir, darunavir]
Drug uptake, OATP1A2 ([1]; with 2% human serum albumin): 2.56 ± 0.78 pmol/oocyte | Drug uptake, OATP1A2 ([1]; without human serum albumin): 4.32 ± 0.75 pmol/oocyte | Drug uptake, Water ([1]; with 2% human serum albumin): 0.96 ± 0.37 pmol/oocyte | Drug uptake, Water ([1]; without human serum albumin): 2.18 ± 0.40 pmol/oocyte | Drug uptake, OATP1B1 ([2]; with 2% human serum albumin): 2.14 ± 0.82 pmol/oocyte | Drug uptake, OATP1B1 ([2]; without human serum albumin): 4.13 ± 0.40 pmol/oocyte | Drug uptake, Water ([2]; with 2% human serum albumin): 0.72 ± 0.18 pmol/oocyte | Drug uptake, Water ([2]; without human serum albumin): 2.12 ± 0.55 pmol/oocyte | Drug uptake, OATP1B3 [3]: 5.41 pmol/oocyte | Drug uptake, Water [3]: 3.29 pmol/oocyte

O=C1Nc2ccc(Cl)cc2[C@@](C#CC2CC2)(C(F)(F)F)O1 [Efavirenz, efavirenz]
Drug uptake, OATP1A2 ([1]; with 2% human serum albumin): 1.63 ± 0.24 pmol/oocyte | Drug uptake, OATP1A2 ([1]; without human serum albumin): 10.3 ± 2.90 pmol/oocyte | Accumulation in SLCO1A2 cRNA injected oocytes compared to water injected control oocytes (in words) [1]: No significant increase | Drug uptake, Water ([1]; with 2% human serum albumin): 1.47 ± 0.28 pmol/oocyte | Drug uptake, Water ([1]; without human serum albumin): 12.6 ± 2.49 pmol/oocyte | Ratio (fold increase in OATP1A2 cRNA injected oocytes compared to water injected oocytes) ([1]; with 2% human serum albumin): 1.11 | Ratio (fold increase in OATP1A2 cRNA injected oocytes compared to water injected oocytes) ([1]; without human serum albumin): 0.81 | Drug uptake, OATP1B1 ([2]; with 2% human serum albumin): 1.51 ± 0.12 pmol/oocyte | Drug uptake, OATP1B1 ([2]; without human serum albumin): 16.0 ± 4.17 pmol/oocyte | Accumulation in SLCO1B1 cRNA injected oocytes compared to water injected control oocytes (in words) [2]: No significant increase | Drug uptake, Water ([2]; with 2% human serum albumin): 1.46 ± 0.21 pmol/oocyte | Drug uptake, Water ([2]; without human serum albumin): 15.9 ± 1.70 pmol/oocyte | Ratio (fold increase in OATP1B1 cRNA injected oocytes compared to water injected oocytes) ([2]; with 2% human serum albumin): 1.03 | Ratio (fold increase in OATP1B1 cRNA injected oocytes compared to water injected oocytes) ([2]; without human serum albumin): 1.00 | Drug uptake, OATP1B3 [3]: 18.21 ± 6.21 pmol/oocyte | Drug uptake, Water [3]: 16.56 ± 6.84 pmol/oocyte | Accumulation in SLCO1B3 cRNA injected oocytes compared to water injected control (in words) [3]: No significant increase | Ratio (fold increase in OATP1B3 cRNA injected oocytes compared to water injected oocytes) [3]: 1.10

Cc1ccnc2c1NC(=O)c1cccnc1N2C1CC1 [Nevirapine, nevirapine]
Drug uptake, OATP1A2 ([1]; with 2% human serum albumin): 2.17 ± 0.26 pmol/oocyte | Drug uptake, OATP1A2 ([1]; without human serum albumin): 2.92 ± 0.59 pmol/oocyte | Accumulation in SLCO1A2 cRNA injected oocytes compared to water injected control oocytes (in words) [1]: No significant increase | Drug uptake, Water ([1]; with 2% human serum albumin): 2.23 ± 0.93 pmol/oocyte | Drug uptake, Water ([1]; without human serum albumin): 2.65 ± 0.54 pmol/oocyte | Ratio (fold increase in OATP1A2 cRNA injected oocytes compared to water injected oocytes) ([1]; with 2% human serum albumin): 0.97 | Ratio (fold increase in OATP1A2 cRNA injected oocytes compared to water injected oocytes) ([1]; without human serum albumin): 1.10 | Drug uptake, OATP1B1 ([2]; with 2% human serum albumin): 2.01 ± 0.40 pmol/oocyte | Drug uptake, OATP1B1 ([2]; without human serum albumin): 2.26 ± 0.20 pmol/oocyte | Accumulation in SLCO1B1 cRNA injected oocytes compared to water injected control oocytes (in words) [2]: No significant increase | Drug uptake, Water ([2]; with 2% human serum albumin): 1.80 ± 0.46 pmol/oocyte | Drug uptake, Water ([2]; without human serum albumin): 2.14 ± 0.22 pmol/oocyte | Ratio (fold increase in OATP1B1 cRNA injected oocytes compared to water injected oocytes) ([2]; with 2% human serum albumin): 1.12 | Ratio (fold increase in OATP1B1 cRNA injected oocytes compared to water injected oocytes) ([2]; without human serum albumin): 1.06 | Drug uptake, OATP1B3 [3]: 3.12 ± 0.47 pmol/oocyte | Drug uptake, Water [3]: 2.98 ± 0.59 pmol/oocyte | Accumulation in SLCO1B3 cRNA injected oocytes compared to water injected control (in words) [3]: No significant increase | Ratio (fold increase in OATP1B3 cRNA injected oocytes compared to water injected oocytes) [3]: 1.05

C[C@]12CC[C@@H]3c4ccc(OS(=O)(=O)O)cc4CC[C@H]3[C@@H]1CCC2=O [estrone-3-sulphate]
Drug uptake, OATP1A2 ([1]; with 2% human serum albumin): 0.35 ± 0.15 pmol/oocyte | Drug uptake, OATP1A2 ([1]; without human serum albumin): 2.02 ± 0.52 pmol/oocyte | Accumulation in SLCO1A2 cRNA injected oocytes compared to water injected control oocytes (in words) [1]: significant increase in accumulation | Drug uptake, Water ([1]; with 2% human serum albumin): 0.10 ± 0.03 pmol/oocyte | Drug uptake, Water ([1]; without human serum albumin): 0.19 ± 0.05 pmol/oocyte | Ratio (fold increase in OATP1A2 cRNA injected oocytes compared to water injected oocytes) ([1]; with 2% human serum albumin): 3.55 * | Ratio (fold increase in OATP1A2 cRNA injected oocytes compared to water injected oocytes) ([1]; without human serum albumin): 10.9 * | Drug uptake, OATP1B1 ([2]; with 2% human serum albumin): 0.15 ± 0.03 pmol/oocyte | Drug uptake, OATP1B1 ([2]; without human serum albumin): 0.51 ± 0.17 pmol/oocyte | Accumulation in SLCO1B1 cRNA injected oocytes compared to water injected control oocytes (in words) [2]: significant increase in accumulation | Drug uptake, Water ([2]; with 2% human serum albumin): 0.08 ± 0.03 pmol/oocyte | Drug uptake, Water ([2]; without human serum albumin): 0.16 ± 0.04 pmol/oocyte | Ratio (fold increase in OATP1B1 cRNA injected oocytes compared to water injected oocytes) ([2]; with 2% human serum albumin): 1.90 * | Ratio (fold increase in OATP1B1 cRNA injected oocytes compared to water injected oocytes) ([2]; without human serum albumin): 3.21 * | Drug uptake, OATP1B3 [3]: 0.50 ± 0.20 pmol/oocyte | Drug uptake, Water [3]: 0.21 ± 0.01 pmol/oocyte | Accumulation in SLCO1B3 cRNA injected oocytes compared to water injected control (in words) [3]: trend towards increased accumulation
